For test [1], the target named is T1, VPAC1 receptor (CHO-K1/VPAC1 cells) (Homo sapiens, UniProt P32241).
T1 construct: expressed in transfected cells
T1 sequence (P32241 31-457): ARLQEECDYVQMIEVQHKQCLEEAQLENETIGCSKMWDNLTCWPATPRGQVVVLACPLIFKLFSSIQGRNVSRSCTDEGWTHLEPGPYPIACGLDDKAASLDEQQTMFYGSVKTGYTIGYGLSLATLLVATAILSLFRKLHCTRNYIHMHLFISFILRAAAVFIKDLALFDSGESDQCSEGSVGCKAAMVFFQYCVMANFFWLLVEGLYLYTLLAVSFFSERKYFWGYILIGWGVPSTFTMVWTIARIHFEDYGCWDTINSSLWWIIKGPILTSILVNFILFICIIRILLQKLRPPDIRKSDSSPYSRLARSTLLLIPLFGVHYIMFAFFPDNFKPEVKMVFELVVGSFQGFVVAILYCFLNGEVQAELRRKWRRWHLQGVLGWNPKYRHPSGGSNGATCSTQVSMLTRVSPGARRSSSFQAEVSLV
The experiment in a line: in vitro subtractive panning of 12-mer phage display peptide library on CHO-K1/VPAC1 cells, DNA sequencing of clones. Format: binding. As to conditions: 60 phage clones randomly selected after fourth round of panning; three lacked exogenous sequence.

Test [2] has as its target T1, VPAC1 receptor (CHO-K1/VPAC1 cells). The experiment in a line: cellular ELISA, binding of phage clones to CHO-K1/VPAC1 versus wild-type CHO-K1 cells. Particulars: 1×10^10 pfu/well, 37°C, 2 h, HRP-anti-M13, glutaral-fixed cells, triplicate, p<0.01. (In general: An ELISA detects its analyte on a solid surface through an enzyme-linked reagent.)
For test [3] the target is unchanged. The experiment in a line: competitive inhibition ELISA: binding of positive phage clone VP2 to CHO-K1/VPAC1 cells, inhibited by synthetic peptide. Here is the method:
Competitive binding inhibition between the positive phage clone and its encoded peptide was evaluated in this study using the competitive inhibition ELISA method. The procedure was similar to that of the cellular ELISA mentioned above in “Cell enzyme-linked immunosorbent assay”. Briefly, CHO-K1/VPAC1 cells were incubated with 100 µl of synthetic peptide encoded by the positive phage clone at various concentrations (0, 0.0001, 0.001, 0.01, 0.1, 1, 10 and 100 µg/ml) in a 96-well plate after it was blocked with 2% BSA. Subsequently, 1×10^10 pfu homologous positive phage clones was added to the cells and incubated at 37°C for 2 h. The unbound phages were washed away, and an HRP-conjugated anti-M13 monoclonal antibody was used to detect the bound phages as described above. The rate of inhibition was calculated using the following formula: rate of inhibition = (A value of inhibition control – A value of inhibition)/A value of inhibition control×100%. An unrelated peptide corresponding to an unrelated phage was used as a negative control.

Consider 18 sequences from article PMC3554773, “Screening of a Specific Peptide Binding to VPAC1 Receptor from a Phage Display Peptide Library” (PLoS ONE, 2013).

For orientation: IC50 means the concentration needed to halve the response being measured. Lower therefore signals inhibition by little substance.

No end group written: not given here.

AYTTVPYMATLP [VP9]: the “Frequency (number of the peptide sequence appeared in the whole selected phage clones)” value in test [1] came to 1.
On to DTFHSPLVALVS [VP5], for which the “Frequency (number of the peptide sequence appeared in the whole selected phage clones)” value in test [1] is 5. Further, the “binding affinity to CHO-K1/VPAC1 cells compared with CHO-K1 cells (OD450 nm)” value in test [2] was “higher affinity to CHO-K1/VPAC1 cells than CHO-K1 cells”.
As to DTGHSPEPGKVP [VP13], the “Frequency (number of the peptide sequence appeared in the whole selected phage clones)” value in test [1] is given as 1.
Still for that read-out and setting: under ETVRQAEELFYV [VP7] stands 1.
In the case of GFRFGALHEYNS [VP2], the “IC50 of VP2 peptide compared with IC50 of VIP” value in test [3] (inhibition of phage VP2 binding to CHO-K1/VPAC1 cells, VIP value from Figure 5A) is “significantly lower than the IC50 of VIP”. Further, in test [3] (peptide 0-100 µg/ml, 1×10^10 pfu phage VP2, 37°C, 2 h), the IC50 is approximately 13.2 nM.
With GGSIAASELEYY [VP10], the “Frequency (number of the peptide sequence appeared in the whole selected phage clones)” value in test [1] came to 2. The “binding affinity to CHO-K1/VPAC1 cells compared with CHO-K1 cells (OD450 nm)” value in test [2] is “higher affinity to CHO-K1/VPAC1 cells than CHO-K1 cells”.
On to GSFHSPLLAYVS [VP12], for which the “Frequency (number of the peptide sequence appeared in the whole selected phage clones)” value in test [1] amounted to 1.
On to GTFHSPLLDHKS [VP14], for which, in test [1], the “Frequency (number of the peptide sequence appeared in the whole selected phage clones)” value stood at 1.
With GWLRSPSLLFSN [VP16], in test [1], the “Frequency (number of the peptide sequence appeared in the whole selected phage clones)” value worked out at 2. The “binding affinity to CHO-K1/VPAC1 cells compared with CHO-K1 cells (OD450 nm)” value in test [2] is listed as “higher affinity to CHO-K1/VPAC1 cells than CHO-K1 cells”.
On to GYTFQPLNEWAI [VP18], for which the “Frequency (number of the peptide sequence appeared in the whole selected phage clones)” value in test [1] came out at 1.
On the same count and under the same terms, the result for HSTLKLGALTNY [VP11] reads 1; that for NSIALINDTHKR [VP3], 2.
On to SFRFFPLDMWPH [VP8], for which the “Frequency (number of the peptide sequence appeared in the whole selected phage clones)” value in test [1] is listed as 5. Besides, the “binding affinity to CHO-K1/VPAC1 cells compared with CHO-K1 cells (OD450 nm)” value in test [2] is on record as “higher affinity to CHO-K1/VPAC1 cells than CHO-K1 cells”.
Regarding TVKYSTLVEWPY [VP1], the “Frequency (number of the peptide sequence appeared in the whole selected phage clones)” value in test [1] was 8. The “binding affinity to CHO-K1/VPAC1 cells compared with CHO-K1 cells (OD450 nm)” value in test [2] is reported as “higher affinity to CHO-K1/VPAC1 cells than CHO-K1 cells”.
With TVTFAPLRMWHP [VP15], the “Frequency (number of the peptide sequence appeared in the whole selected phage clones)” value in test [1] was 1.
Consider TWKFEPLGTFID [VP4], for which, in test [1], the “Frequency (number of the peptide sequence appeared in the whole selected phage clones)” value was determined as 3.
Same read-out and setting: the result for TYTFRPLYEPPL [VP17] reads 1.
Consider YTSHFPLETWPQ [VP6], for which, in test [1], the “Frequency (number of the peptide sequence appeared in the whole selected phage clones)” value came out at 5. The “binding affinity to CHO-K1/VPAC1 cells compared with CHO-K1 cells (OD450 nm)” value in test [2] is “higher affinity to CHO-K1/VPAC1 cells than CHO-K1 cells”.
